Assay results reported in US12180204B1, “2-(benzo[d]thiazol-2-yl)-N′-(2-(5-phenyl-1,3,4-oxadiazol-2-ylthio)acetoxy)acetimidamide as an antimicrobial compound” (priority 2023, dated 2024).

System: Bacillus cereus, Staphylococcus aureus, Pseudomonas aeruginosa, Escherichia coli, Aspergillus flavus, Chrysosporium keratinophilum
Experiment: Agar plate disc-diffusion antimicrobial test
Assay type: cell-based
Details: disc wetted with 10 μL of 10 mg/mL in DMSO; 37° C., 48 h, 72 h for fungi; DMSO control zone subtracted
Experimental: The agar plate disc-diffusion method was applied. Sterilized filter papers (6 mm in diameter) were wetted with 10 μL of a solution of 2-(benzo[d]thiazol-2-yl)-N′-(2-(5-phenyl-1,3,4-oxadiazol-2-ylthio)acetoxy)acetimidamide (3) to be tested, containing 10 mg/mL in DMSO, and the discs were allowed to air dry. The discs were then placed onto the surface of agar plates (nutrient agar for bacteria and Sabouraud's dextrose agar for fungi) seeded with the test organism. Each plate contained 15 mL of the agar medium, previously seeded with 0.2 mL of the broth culture of each organism pregrown for 18 hours. The plates were incubated at 37° C. for 48 h, and 72 h for fungi. The inhibition zones were measured in mm. Discs impregnated with DMSO were used as a control, and its inhibition zone was subtracted from the tested compound actual inhibition zone. […] The antibacterial activity was screened against gram positive bacteria namely Bacillus cereus and Staphylococcus aureus and gram-negative bacterial strains namely Pseudomonas aeruginosa and Escherichia coli, while the antifungal activity was screened against Aspergillus flavus and Chrysosporium keratinophilum.

N/C(Cc1nc2ccccc2s1)=N\OC(=O)CSc1nnc(-c2ccccc2)o1 [compound 3, 2-(benzo[d]thiazol-2-yl)-N′-(2-(5-phenyl-1,3,4-oxadiazol-2-ylthio)acetoxy)acetimidamide]
antimicrobial activities (inhibition zones): high antimicrobial activities
